This test has as its system human embryonic stem cell derived neural stem cells (NSCs). The experiment in a line: Neural stem cell proliferation assay (neurogenesis assay). Type of test: cell-based. The note with it: Homo sapiens, Neural stem cell, 96 h, concentration at which 150% activity of control (100%) is reached, ATP levels (CellTiterGlo) after 4 days incubation. The procedure:
Neural Stem Cell Proliferation Assay
Neurogenic properties of small molecules are determined based on the proliferation of human embryonic stem cell derived neural stem cells (NSCs) which were derived via a dual smad inhibition as previously described (Chambers, S. M., et al., Highly efficient neural conversion of human ES and iPS cells by dual inhibition of SMAD signaling, Nature biotechnology, 2009. 27 (3): p. 275-80.)
Compounds respond is measured by the increase in cells based on ATP levels (Promega:CellTiterGlo®) after an incubation period of 4 days.
NSCs are thawed and expanded over 3 passages. On the 14th day, NSCs are seeded in Polyornithin/Laminin coated 384 well plates at a cell density of 21,000 cells/cm^2 in a media volume of 38 μl.
4 hours after cell seeding, compound solutions are added at a volume of 2 μl. Stock solutions of the compounds (water, 5% DMSO) are diluted to obtain a dose response (11 points, dilution factor is 2), ranging from 8 μM to 8 nM. Controls are run to consistently determine the neurogenic properties of the cells:
Negative (neutral) control is cell culture Media (final DMSO concentration: 0.25%).
Positive controls are: • 1. cell culture Media+100 ng/ml FGF2 (final DMSO concentration: 0.1%) • 2. cell culture Media+20 ng/ml EGF (final DMSO concentration: 0.1%) • 3. cell culture Media+100 ng/ml Wnt3a (final DMSO concentration: 0.1%)
After 4 days incubation at 37° C., 5% CO2, the amount of ATP per well is quantified. The ATP concentration is proportional to the cell number. ATP is quantified by using the Promega CellTiterGlo® kit. The CellTiterGlo® reagents contain a cell lysis buffer, a thermo stable luciferase (UltraGlo™ recombinant luciferase), magnesium and luciferin. Luciferin reacts with ATP producing oxyluciferin, AMP and light. The luminescence signal is proportional to the ATP content.
The value of negative (neutral) control is determined for each assay plate by taking the average of 16 negative control wells. The neurogenic compound response is calculated for each compound as (compound/Negative Control)*100.
The values of EC150 from the dose response curve are determined for each test compound. The EC150 is the compound concentration at which 150% activity of control (100%) is reached.

Regarding `NC(=O)c1ccc2cncc(-c3ccc(-n4cccn4)cc3)c2n1` [Example 103, 8-(4-(1H-Pyrazol-1-yl)phenyl)-1,6-naphthyridine-2-carboxamide], the EC (150% of control) (Table 1, novel compounds) was 0.01 µM.

Where the note is “Table 1, novel compounds”, `O=C(NCc1ccncc1)c1ccc2cncc(-c3ccc(Cl)cc3)c2n1` [Example 28, 8-(4-Chlorophenyl)-N-(pyridin-4-ylmethyl)-1,6-naphthyridine-2-carboxamide] registered an EC (150% of control) of 0.1 µM.

`O=C(NCc1ccncc1)c1ccc2cncc(-c3ccsc3)c2n1` [Example 198, 8-Thiophen-3-yl-[1,6]naphthyridine-2-carboxylic acid (pyridin-4-ylmethyl)-amide] registered an EC (150% of control) (Table 2, known compounds) of 0.12 µM.

Regarding `CC(NC(=O)c1ccc2cncc(-c3ccc(Cl)cc3Cl)c2n1)C(C)(C)O` (centres unmarked) [Example 172, 8-(2,4-Dichlorophenyl)-N-(3-hydroxy-3-methylbutan-2-yl)-1,6-naphthyridine-2-carboxamide], the EC (150% of control) (Table 1, novel compounds) was determined as 0.5 µM.

Compound `O=C(NCCCn1ccnc1)c1ccc2cncc(-c3ccsc3)c2n1` [Example 197, 8-Thiophen-3-yl-[1,6]naphthyridine-2-carboxylic acid (3-imidazol-1-yl-propyl)-amide] yielded an EC (150% of control) (Table 2, known compounds) of 1.98 µM.

As for `COc1cccc(-c2cncc3ccc(C(=O)NCc4ccccc4)nc23)c1` [Example 11, N-Benzyl-8-(3-methoxyphenyl)-1,6-naphthyridine-2-carboxamide], under “Table 1, novel compounds”, the EC (150% of control) was 0.03 µM.

`CN(C(=O)c1ccc2cncc(-c3ccc(Cl)cc3)c2n1)C1CC1` [Example 97, 8-(4-Chlorophenyl)-N-cyclopropyl-N-methyl-1,6-naphthyridine-2-carboxamide]: the EC (150% of control) (Table 1, novel compounds) worked out at 0.26 µM.

As for `O=C(NC1CC1)c1ccc2cncc(-c3ccc(Cl)cc3)c2n1` [Example 65, 8-(4-Chlorophenyl)-N-cyclopropyl-1,6-naphthyridine-2-carboxamide], the EC (150% of control) (Table 1, novel compounds) stood at 0.08 µM.

Regarding `O=C(NCc1ccc(C(F)(F)F)nc1)c1ccc2cncc(-c3ccccc3)c2n1` [Example 196, 8-Phenyl-[1,6]naphthyridine-2-carboxylic acid (6-trifluoromethyl-pyridin-3-ylmethyl)-amide], the EC (150% of control) (Table 2, known compounds) stood at 3.7 µM.

`O=C(NCc1ccccc1)c1ccc2cncc(-c3cccc(Cl)c3)c2n1` [Example 14, N-Benzyl-8-(3-chlorophenyl)-1,6-naphthyridine-2-carboxamide] returned an EC (150% of control) (Table 1, novel compounds) of 0.54 µM.

For the compound `CCCCCCC(=O)NCc1ccc(-c2cncc3ccc(C(N)=O)nc23)cc1` [Example 149, 8-(4-(Heptanamidomethyl)phenyl)-1,6-naphthyridine-2-carboxamide], the EC (150% of control) (Table 1, novel compounds) was 0.07 µM.

In turn, `O=C(c1ccc2cncc(-c3ccc(Cl)c(F)c3)c2n1)N1CCC(O)C1` (centres unmarked) [Example 131, (8-(4-Chloro-3-fluorophenyl)-1,6-naphthyridin-2-yl)(3-hydroxypyrrolidin-1-yl)methanone] came in with an EC (150% of control) (Table 1, novel compounds) of 0.07 µM.

Take `CS(=O)(=O)CCNC(=O)c1ccc2cncc(-c3ccc(F)cc3F)c2n1` [Example 129, 8-(2,4-Difluorophenyl)-N-(2-(methylsulfonyl)ethyl)-1,6-naphthyridine-2-carboxamide]: the EC (150% of control) (Table 1, novel compounds) came out at 0.06 µM.

Compound `O=C(NCCCn1ccnc1)c1ccc2cncc(-c3cccc(Cl)c3)c2n1` [Example 36, N-(3-(1H-Imidazol-1-yl)propyl)-8-(3-chlorophenyl)-1,6-naphthyridine-2-carboxamide] yielded an EC (150% of control) (Table 1, novel compounds) of 1.04 µM.

Where the note is “Table 1, novel compounds”, `COCCNC(=O)c1ccc2cncc(-c3ccccc3Cl)c2n1` [Example 8, 8-(2-Chlorophenyl)-N-(2-methoxyethyl)-1,6-naphthyridine-2-carboxamide] had an EC (150% of control) of 0.33 µM.

Where the note is “Table 1, novel compounds”, `O=C(c1ccc2cncc(-c3ccc(Cl)cc3)c2n1)N1CCNCC1` [Example 61, (8-(4-Chlorophenyl)-1,6-naphthyridin-2-yl)(piperazin-1-yl)methanone] came in with an EC (150% of control) of 3.15 µM.

Turning to `NC(=O)c1ccc2cncc(-c3ccccc3F)c2n1` [Example 79, 8-(2-Fluorophenyl)-1,6-naphthyridine-2-carboxamide], the EC (150% of control) (Table 1, novel compounds) was 0.03 µM.

The values are drawn from patent US9657014B2, “Substituted 1,6-naphthyridines” (Hoffmann-La Roche Inc., priority 2012, dated 2017).
